In patent US20050214738A1, “Conditional allele system” (priority 2003, published 2005):

Tests used:
FRB*Pax6 = biological target: T1, FRB*Pax6 (UniProt P26883+P42345, K2095P/T2098L/W2101F); assay: Stabilization of FRB*Pax6 in cortical neural cultures (Western blot); assay type: cell-based, mouse
T1 construct: The minimal FRB domain comprises amino acids 2025-2114 of human mTor; from tissue; host or cells: e13.5 cortical neural cultures (A14) and cultured whole embryos (A15) from Pax6^FRB* knock-in mice; fusion expressed from the targeted endogenous locus
Description: e13.5 embryos were harvested from a Pax6^FRB*/+ intercross and cortical hemispheres isolated from individuals identified by eye and craniofacial morphology and later confirmed by genotype specific PCR. Pia were removed and neocortex dissected from […] in Hank's balanced salt solution (HBSS). Tissue was minced roughly and placed in centrifuge tubes containing HBSS+20% foetal calf serum. Tissue pieces were allowed to settle and the media was replaced first with HBSS+serum then HBSS alone. The tissue was incubated with 0.1% trypsin+2 mM EDTA 10 minutes at 37° C. then the reaction stopped with HBSS+serum. Cells were triturated to a suspension and plated on 24 well plates coated with matrigel in DMEM (high glucose) supplemented with FCS (5%), N2 (GIBCO) and antibiotics.
Extracts were prepared in RIPA buffer, protein quantified by Bradford Assay (Biorad) and 10 μg of total protein resolved by SDS-PAGE, transferred to PVDF (Millipore) filters and Pax6 or HSP90 identified with specific antibodies (1:1000, Covance and 1:2500 Transduction Laboratories, respectively) incubated 1 hour in TBS+10% nonfat milk. Secondary conjugated to horse radish peroxidase were purchased from Jackson immunochemicals and blots were developed by chemiluminescence (Amersham).

KLF = biological target: T2, KLF (Homo sapiens, UniProt P42345+P62942, T2098L/W2101F); assay: SeAP transcriptional switch assay, FRB mutant KLF; assay type: cell-based; details: double mutant
T2 construct: The minimal FRB domain comprises amino acids 2025-2114 of human mTor; expressed in transfected cells; host or cells: COS1 cells
Method: Drug efficacy was determined in a three-plasmid transcriptional switch reporter assay. ˜106 COS1 cells were coelectroporated with 2 μg of the DNA binding construct pBJ5-Gal4-FKBP(3), 2 μg pBJ5-VP16 (or the relevant mutant FRB) and 2 μg of the Gal4-SeAP reporter. Electroporation details are available upon request. Cells were immediately aliquoted to 2 or 3×96 well plates with flat bottoms. After 24 hours incubation media was supplemented with a rapalog in triplicate and in serial two fold dilutions. Following 24 hours further incubation, cells with media were wrapped carefully in plastic wrap and heated to 65° C. for two hours to inactivate endogenous phosphatases. 50 μL of media was transferred to a black 96 well plate (Costar 3915) and supplemented with 1 mM methylumbelliferrylphosphate (Sigma, St. Louis, Mo.) in 1M diethanolamine (pH 10.0 with carbonate). After 16 hours incubation at 37° C. SeAP activity was measured by fluorescence with a Spectamax M2 fluorometer (Molecular Devices, Sunnyvale, Calif.) with transmission set at 355 nm and emmission set at 460 nm. Data was analysed with Softmax Pro (Molecular Devices), Microsoft Excel and Prism 3 (GraphPad Software).

GSK-3βFRB* = GSK-3βFRB* (UniProt P26883+P42345, K2095P/T2098L/W2101F); assay: Inducible stabilization of GSK-3βFRB* in knock-in MEFs (Western blot); assay type: cell-based, mouse; parameters: The minimal FRB domain comprises amino acids 2025-2114 of human mTor; endogenous in cells; host or cells: MEFs from GSK-3β^FRB* knock-in mice (fusion expressed from the targeted endogenous locus)
Method: MEFs cell lines were prepared from E14.5-E16.5 embryos of indicated genotypes by eviscerating the embryos in HBSS, treating the remaining tissue with 0.2% collagenase and trypsin, and plating the cells in DMEM containing 10% FCS, antibiotics, and 0.1 mM β-mercaptoethanol. Once established, the MEFs were cultured using standard techniques and treated with various small molecules as indicated.
Western Blot analysis was carried out using cell lysates prepared in RIPA buffer (10 mM Tris pH 7.2, 150 mM NaCl, 0.1% SDS, 1% Triton X-100, 1% deoxycholate, 5 mM EDTA, protease inhibitor cocktail (Invitrogen Life Technologies)) and then separated using standard SDS/PAGE before being transferred to PVDF (Millipore) using standard Western blotting procedures. The anti-GSK-3β antibody, used at 1:2500, the anti-HSP-90 antibody, 1:2500, and the anti-FKBP12 antibody, 1:2500, were purchased from BD Transduction Labs. The anti-β-catenin antibody, 1:2000, and anti-HSP-70 antibody, 1:1000 were purchased from Santa Cruz Biotechnology. […] In all cases, Western blots were incubated overnight with the appropriate primary antibodies in TBST (10 mM Tris 8.0, 150 mM NaCl, 0.1% Tween-20) containing 10% dry milk, and then washed 3 times with TBST. The blots were subsequently incubated for 30 minutes with HRP-conjugated secondary antibodies from Jackson Immunoresearch, washed 3 more times with TBST, and then developed using standard ECL reagents (Amersham Biosciences) and Kodak XAR film.

FKBP-GSK3β-GFP = biological target: T3, FKBP-GSK3β-GFP (Homo sapiens, UniProt P62942); assay: Sub-cellular localization of FKBP-GSK3β-GFP with FRB(TLW)-NES and FRB(KTF)-NLS in COS1 cells; assay type: cell-based; details: 10 nM, 1 hour
T3 construct: expressed in transfected cells; host or cells: COS1 cells
Method: COS1 cells were electroporated with 1 μg pS-FKBP-GSK3β-GFP, 1 μg of the ‘exporter’ pBJ5-FRB(TLW)-Exp-HA containing a nuclear export sequence derived from the rev protein of Human Immunodeficiency Virus and 3 μg of the ‘importer’ pBJ5-FRB(KTF)-Imp with a nuclear localization sequence from SV40 Large T antigen. Cells were plated on autoclaved coverslips and incubated 36 hours followed by 1 hour of rapalog treatment (10 nM). Cells were fixed 10 minutes in 4% paraformaldeyde/PBS at 4° C. and mounted for microscopy with DAPI to visualize the nucleus. Microscopy was perfomed with a Leica confocal microscope and Leica software.

Chain of GSK-3βFRB* (P42345 2025-2114 K2095P/T2098L/W2101F): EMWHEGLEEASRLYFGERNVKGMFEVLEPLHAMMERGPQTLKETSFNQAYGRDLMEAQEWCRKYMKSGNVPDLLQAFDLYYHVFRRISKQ
Chain of GSK-3βFRB* (P26883 2-108): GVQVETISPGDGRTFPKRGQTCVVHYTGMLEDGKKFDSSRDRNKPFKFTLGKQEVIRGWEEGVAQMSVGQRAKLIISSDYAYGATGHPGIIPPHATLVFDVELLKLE
T1 sequence (P42345 2025-2114 K2095P/T2098L/W2101F): as the sequence (P42345 2025-2114 K2095P/T2098L/W2101F) above
T1 sequence (P26883 2-108): as the sequence (P26883 2-108) above
T2 sequence (P42345 2025-2114 T2098L/W2101F): as the sequence (P42345 2025-2114 K2095P/T2098L/W2101F) above, with P71K counted along it
T2 sequence (P62942 whole entry, the tested form may be a part): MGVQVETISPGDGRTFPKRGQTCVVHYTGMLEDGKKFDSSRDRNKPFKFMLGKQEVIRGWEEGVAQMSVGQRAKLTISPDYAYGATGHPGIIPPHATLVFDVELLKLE
T3 sequence (P62942 whole entry): as the sequence (P62942 whole entry, the tested form may be a part) above

For “C20-(R or S)-methallylrapamycin [C20-MaRap]”, the “FRB*Pax6 protein level” value (FRB*Pax6; Pax6FRB*/FRB* cortical neural cultures, increasing quantities, 36 hours) was “dose-dependent increase in FRB*Pax6 protein”, the “effect on wild-type Pax6 expression” value (FRB*Pax6; cortical neural cultures) was “no effect” and the “kinetics of FRB*Pax6 turnover” value (FRB*Pax6; data not shown) was “markedly slowed”. The EC50 (KLF) was 7.8 nM, the “GSK-3βFRB* levels” value (GSK-3βFRB*; GSK-3βFRB*/FRB* MEFs, 36 hour treatment, 100 nM) was “restored GSK-3βFRB* levels” and the “effect on wild-type GSK-3β, β-catenin, or HSP-90 expression” value (GSK-3βFRB*; MEFs) was “neither drug had an effect”. The “stabilization in fibroblasts lacking detectable FKBP12 expression” value (GSK-3βFRB*; doubly homozygous GSK-3βFRB* and FKBP12IM, 100 nM 36 hours) was “complete loss of C20-MaRap-induced stabilization”, the “time of half maximal stabilization” value (GSK-3βFRB*; heterozygous MEFs, 100 nM) was 8 to 12 h and the “time to complete stabilization” value (GSK-3βFRB*; heterozygous MEFs, 100 nM) was “approximately 24 hours”. The “sub-cellular localization of GSK3β” value (FKBP-GSK3β-GFP) was “localization of GSK3β to the nucleus”.
